Structures are written as SMILES.

Assay [1] concerns the target hNav1.5 (Homo sapiens (Human), UniProt Q14524). Nature of the assay: Patch voltage clamp electrophysiology (PatchXpress), HEK-293 cells, inactivated state block. The settings on record: read-out: EP_PX 293 hNav1.5 (IC50), β1 coexpressed, holding −60 mV.
Assay [2] addresses T1, hNav1.7 (Homo sapiens (Human), UniProt Q15858). The assay can be described thus: Tritiated aryl sulfonamide binding to membranes from cells expressing hNav1.7 and the β1 subunit (competitive binding). The settings on record: read-out: NaV1.7 395 Memb Binding (IC50). A digest of the protocol:
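Competitive displacement of 100 μM [3H]-labelled tritiated aryl sulfonamide from hNav1.7/β1 membranes, 18 h at room temperature in 100 mM NaCl, 20 mM Tris HCl pH 7.4. Non-specific binding defined with 1 μM unlabelled compound. Filter-bound radioactivity measured by liquid scintillation counting.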

Assay [3] deals with T1, hNav1.7. The assay can be described thus: Patch voltage clamp electrophysiology (PatchXpress), HEK-293 cells, inactivated state block. Type of assay: cell-based. The settings on record: read-out: EP_PX 293 hNav1.7 (IC50).
[4] abbreviates: membranes with hNav1.7 and β1 subunit, [3H]compound displacement, 18 h, room temperature.
The mark [5] stands for this setting: HEK-293 cells, β1 coexpressed, inactivated state, holding −60 mV.

T1 sequence (Q15858 whole entry, looked up): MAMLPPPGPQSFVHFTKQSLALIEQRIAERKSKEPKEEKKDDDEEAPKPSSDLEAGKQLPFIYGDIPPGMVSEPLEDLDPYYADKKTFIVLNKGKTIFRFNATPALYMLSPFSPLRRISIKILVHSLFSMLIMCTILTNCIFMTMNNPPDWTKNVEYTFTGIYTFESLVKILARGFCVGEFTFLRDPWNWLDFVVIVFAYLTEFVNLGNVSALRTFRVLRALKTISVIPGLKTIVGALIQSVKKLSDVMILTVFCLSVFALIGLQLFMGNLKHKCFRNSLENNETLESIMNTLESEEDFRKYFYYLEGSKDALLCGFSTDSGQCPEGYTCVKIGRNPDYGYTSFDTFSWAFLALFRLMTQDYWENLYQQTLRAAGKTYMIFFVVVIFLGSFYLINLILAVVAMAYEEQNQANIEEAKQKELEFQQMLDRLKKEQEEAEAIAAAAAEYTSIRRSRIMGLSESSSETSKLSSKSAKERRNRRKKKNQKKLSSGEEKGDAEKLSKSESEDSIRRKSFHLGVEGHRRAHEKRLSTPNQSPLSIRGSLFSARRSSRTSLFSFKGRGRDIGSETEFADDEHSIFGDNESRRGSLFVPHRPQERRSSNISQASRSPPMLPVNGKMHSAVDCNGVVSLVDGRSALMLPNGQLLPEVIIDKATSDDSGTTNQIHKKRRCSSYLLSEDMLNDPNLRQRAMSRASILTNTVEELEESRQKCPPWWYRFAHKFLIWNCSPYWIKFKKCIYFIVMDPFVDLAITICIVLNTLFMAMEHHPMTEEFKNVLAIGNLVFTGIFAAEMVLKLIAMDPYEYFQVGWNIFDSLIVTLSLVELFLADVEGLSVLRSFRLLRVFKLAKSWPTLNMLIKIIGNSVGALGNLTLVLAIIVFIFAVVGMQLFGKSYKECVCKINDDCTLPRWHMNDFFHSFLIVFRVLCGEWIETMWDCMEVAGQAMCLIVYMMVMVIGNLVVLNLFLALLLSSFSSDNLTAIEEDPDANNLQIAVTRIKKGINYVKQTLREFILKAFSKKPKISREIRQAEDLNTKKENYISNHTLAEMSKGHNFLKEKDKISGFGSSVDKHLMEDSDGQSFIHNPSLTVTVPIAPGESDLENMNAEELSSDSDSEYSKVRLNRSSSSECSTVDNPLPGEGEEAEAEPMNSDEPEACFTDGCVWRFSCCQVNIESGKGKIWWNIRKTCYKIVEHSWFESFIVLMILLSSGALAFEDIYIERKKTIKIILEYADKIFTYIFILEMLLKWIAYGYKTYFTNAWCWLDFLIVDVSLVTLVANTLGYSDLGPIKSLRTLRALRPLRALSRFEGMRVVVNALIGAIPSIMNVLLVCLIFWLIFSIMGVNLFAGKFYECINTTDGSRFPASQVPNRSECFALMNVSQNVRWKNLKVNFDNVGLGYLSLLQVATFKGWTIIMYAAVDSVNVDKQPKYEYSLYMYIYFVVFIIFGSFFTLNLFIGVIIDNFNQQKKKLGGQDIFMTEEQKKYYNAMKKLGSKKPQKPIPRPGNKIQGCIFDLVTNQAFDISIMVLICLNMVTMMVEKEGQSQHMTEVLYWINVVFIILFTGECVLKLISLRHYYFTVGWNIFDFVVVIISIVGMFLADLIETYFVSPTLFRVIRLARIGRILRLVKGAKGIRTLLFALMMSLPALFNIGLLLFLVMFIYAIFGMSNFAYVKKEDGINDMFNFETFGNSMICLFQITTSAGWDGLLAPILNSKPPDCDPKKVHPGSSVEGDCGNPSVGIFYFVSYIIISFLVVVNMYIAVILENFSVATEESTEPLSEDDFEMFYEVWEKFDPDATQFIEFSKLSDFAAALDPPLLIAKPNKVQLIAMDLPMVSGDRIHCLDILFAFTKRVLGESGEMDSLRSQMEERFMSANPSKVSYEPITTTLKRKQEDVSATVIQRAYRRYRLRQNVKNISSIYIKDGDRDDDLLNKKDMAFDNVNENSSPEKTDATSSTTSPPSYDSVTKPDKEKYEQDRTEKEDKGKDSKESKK
T1 sequence (Q07699 whole entry partner, looked up): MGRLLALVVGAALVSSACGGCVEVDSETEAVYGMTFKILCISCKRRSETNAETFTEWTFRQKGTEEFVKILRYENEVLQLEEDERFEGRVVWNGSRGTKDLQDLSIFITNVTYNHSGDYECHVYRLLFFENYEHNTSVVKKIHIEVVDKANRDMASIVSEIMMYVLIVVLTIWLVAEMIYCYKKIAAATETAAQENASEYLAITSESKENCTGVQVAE
Chain of hNav1.5 (Q14524 whole entry): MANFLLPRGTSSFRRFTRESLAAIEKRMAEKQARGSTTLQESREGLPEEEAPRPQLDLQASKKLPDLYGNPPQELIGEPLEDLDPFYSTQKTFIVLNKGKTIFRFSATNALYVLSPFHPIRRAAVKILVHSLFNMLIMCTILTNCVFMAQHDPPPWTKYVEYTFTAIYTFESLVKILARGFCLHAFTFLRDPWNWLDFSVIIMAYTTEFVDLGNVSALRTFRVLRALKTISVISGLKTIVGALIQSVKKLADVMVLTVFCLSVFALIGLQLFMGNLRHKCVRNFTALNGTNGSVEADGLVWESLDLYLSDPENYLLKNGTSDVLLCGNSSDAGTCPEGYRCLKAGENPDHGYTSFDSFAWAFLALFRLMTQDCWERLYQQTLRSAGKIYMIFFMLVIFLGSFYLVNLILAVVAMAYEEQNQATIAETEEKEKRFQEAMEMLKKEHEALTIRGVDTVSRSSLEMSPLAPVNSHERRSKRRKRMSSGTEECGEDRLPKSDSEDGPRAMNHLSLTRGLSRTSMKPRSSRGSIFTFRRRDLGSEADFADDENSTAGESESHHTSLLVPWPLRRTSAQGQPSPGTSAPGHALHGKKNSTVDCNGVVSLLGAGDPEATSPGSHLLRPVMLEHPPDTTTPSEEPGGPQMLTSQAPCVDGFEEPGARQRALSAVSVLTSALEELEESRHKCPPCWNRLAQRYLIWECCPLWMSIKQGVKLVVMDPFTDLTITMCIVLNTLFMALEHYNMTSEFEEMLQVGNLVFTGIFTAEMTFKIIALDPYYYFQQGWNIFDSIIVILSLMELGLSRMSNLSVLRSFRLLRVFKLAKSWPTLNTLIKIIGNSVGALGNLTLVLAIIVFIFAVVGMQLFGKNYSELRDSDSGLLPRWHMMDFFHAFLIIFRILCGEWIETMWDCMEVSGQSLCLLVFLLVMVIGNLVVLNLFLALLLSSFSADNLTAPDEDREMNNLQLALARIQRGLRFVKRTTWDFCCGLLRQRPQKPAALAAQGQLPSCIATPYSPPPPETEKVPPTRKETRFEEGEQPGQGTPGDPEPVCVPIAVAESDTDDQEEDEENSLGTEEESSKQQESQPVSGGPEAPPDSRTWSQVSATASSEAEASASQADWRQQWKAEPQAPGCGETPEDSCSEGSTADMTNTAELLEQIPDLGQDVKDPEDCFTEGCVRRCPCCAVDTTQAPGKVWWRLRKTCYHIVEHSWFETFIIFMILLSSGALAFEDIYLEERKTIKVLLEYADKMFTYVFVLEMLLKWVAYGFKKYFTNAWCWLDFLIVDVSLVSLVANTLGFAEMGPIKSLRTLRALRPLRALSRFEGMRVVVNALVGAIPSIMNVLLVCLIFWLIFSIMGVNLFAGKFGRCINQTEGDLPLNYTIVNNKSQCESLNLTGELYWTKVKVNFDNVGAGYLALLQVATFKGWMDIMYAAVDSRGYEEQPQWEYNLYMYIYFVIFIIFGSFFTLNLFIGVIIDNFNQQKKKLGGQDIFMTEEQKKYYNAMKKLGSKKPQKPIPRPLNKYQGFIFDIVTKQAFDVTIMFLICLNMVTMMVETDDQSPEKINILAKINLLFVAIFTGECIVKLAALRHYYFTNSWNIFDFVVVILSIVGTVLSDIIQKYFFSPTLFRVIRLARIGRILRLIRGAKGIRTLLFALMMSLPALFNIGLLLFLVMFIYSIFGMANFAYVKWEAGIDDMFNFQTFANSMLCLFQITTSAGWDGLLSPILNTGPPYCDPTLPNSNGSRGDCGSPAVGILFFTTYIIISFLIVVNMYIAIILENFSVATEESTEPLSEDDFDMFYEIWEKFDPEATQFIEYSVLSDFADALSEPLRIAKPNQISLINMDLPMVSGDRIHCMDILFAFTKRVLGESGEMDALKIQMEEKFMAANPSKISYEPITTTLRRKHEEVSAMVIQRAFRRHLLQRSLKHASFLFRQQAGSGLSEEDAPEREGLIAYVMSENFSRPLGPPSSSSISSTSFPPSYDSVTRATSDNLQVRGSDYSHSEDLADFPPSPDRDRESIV

Regarding `O=C(NS(=O)(=O)N1CC[C@H](O)C1)c1cc(C2CC2)c(OCC23CC4CC(CC(C4)C2)C3)cc1F`, the IC50 in assay [1] stood at 110 nM; in assay [2] (setting [4]) it was 10 nM.
As for `COC1CN(S(=O)(=O)NC(=O)c2cc(C3CC3)c(OCC34CC5CC(CC(C5)C3)C4)cc2F)C1`, the IC50 was determined as 144 nM in assay [1], 3 nM in assay [2] (setting [4]) and 24.9 nM in assay [3] (setting [5]).
Turning to `O=C(NS(=O)(=O)C1CC1)c1cc(C2CC2)c(OCC23CC4(F)CC(F)(CC(F)(C4)C2)C3)cc1F`, the figures for the IC50 in assay [1], in assay [2] (setting [4]) and in assay [3] (setting [5]) were 430 nM, 5 nM and 20 nM, respectively.
Turning to `COCCS(=O)(=O)NC(=O)c1cnc(OCC23CC4CC(CC(C4)C2)C3)c(C2CC2)c1`, the IC50 in assay [1] came out at 15300 nM; in assay [2] (setting [4]), 720 nM; in assay [3] (setting [5]), 370 nM.
The matching figures for `O=C(NS(=O)(=O)C1CC1)c1cc(C2CC2)c(OCC2(C(F)(F)F)CCCCC2)cc1F` [Example 446, 5-cyclopropyl-N-(cyclopropylsulfonyl)-2-fluoro-4-((1-(trifluoromethyl)-cyclohexyl)methoxy)benzamide]: 160 nM, 1.6 nM and 3.1 nM.
As to `O=C(NS(=O)(=O)C1CC1)c1cc(C2CC2)c(OCC2CCC(F)(F)CC2)cc1F`, the results for the IC50 in assay [1], in assay [2] (setting [4]) and in assay [3] (setting [5]) were 630 nM, 6 nM and 8 nM, respectively.
As for `CS(=O)(=O)NC(=O)c1cc(Cl)c(OCC2CC3C4CCC(C4)C3C2)cc1F` (centres unmarked) [Example 445], the results for the IC50 in assay [1], in assay [2] (setting [4]) and in assay [3] (setting [5]) were 743 nM, 9.3 nM and 3.6 nM, respectively.
On to `CN(C)S(=O)(=O)NC(=O)c1cc(Cl)c(OCC23CC4CC(C2)C(F)(F)C(C4)C3)cc1F` [Example 92], for which the results for the IC50 in assay [1], in assay [2] (setting [4]) and in assay [3] (setting [5]) were 3760 nM, 221 nM and 53.1 nM, respectively.
The matching figures for `CS(=O)(=O)NC(=O)c1ccc(OCC23CC4CC(CC(C4)C2)C3)c(C2CC2)c1`: 700 nM, 3 nM and 1.31 nM.
As to `O=C(NS(=O)(=O)N1CCC1)c1cnc(OCC23CC4CC(CC(C4)C2)C3)c(C2CC2)c1`, the IC50 was determined as 7500 nM in assay [1], 290 nM in assay [2] (setting [4]) and 63 nM in assay [3] (setting [5]).
As for `O=C(NS(=O)(=O)N1CCC1)c1cc(C2CC2)c(OCC2CCC(F)(F)CC2)cc1F` [Example 448, N-(azetidin-1-ylsulfonyl)-5-cyclopropyl-4-((4,4-difluorocyclohexyl)-methoxy)-2-fluorobenzamide], the results for the IC50 in assay [1], in assay [2] (setting [4]) and in assay [3] (setting [5]) were 940 nM, 18 nM and 7.8 nM, respectively.
On to `CN(C)S(=O)(=O)NC(=O)c1cc(Cl)c(OC2CC3CC2C2CCCC32)cc1F` (centres unmarked), for which the IC50 in assay [1] came out at 7820 nM; in assay [2] (setting [4]) it was 535 nM.
`CS(=O)(=O)NC(=O)c1cc(C2CC2)c(OCC2CN(C(c3ccccc3)c3ccccc3)C2)cc1F` [Example 440, 4-((1-benzhydrylazetidin-3-yl)methoxy)-5-cyclopropyl-2-fluoro-N-(methylsulfonyl)benzamide]: the IC50 came to 2540 nM in assay [1], 11 nM in assay [2] (setting [4]) and 14 nM in assay [3] (setting [5]).
For `O=C(NS(=O)(=O)C1CC1)c1cc(C2CC2)c(OCC23CC4CC(C2)C(F)(F)C(C4)C3)cc1F`, in that order: 130 nM, 3 nM and 8 nM.
Consider `CC1(C)[C@H]2CC[C@H](COc3cc(F)c(C(=O)NS(C)(=O)=O)cc3Cl)[C@@H]1C2`, for which the IC50 turned out to be 1070 nM in assay [1] and 12 nM in assay [2] (setting [4]).
On to `O=C(NS(=O)(=O)N1CC(F)(F)C1)c1cc(C2CC2)c(OCC23CC4CC(CC(C4)C2)C3)cc1F`, for which the IC50 in assay [1] was 326 nM; in assay [2] (setting [4]), 10 nM.
With `COCCS(=O)(=O)NC(=O)c1cc(C2CC2)c(OCC2CCCCC2)cc1F`, the IC50 in assay [1] was 140 nM.
Consider `CS(=O)(=O)NC(=O)c1cc(C2CC2)c(OCC2CCC(F)(F)CC2)cc1F`, for which, in assay [1], the IC50 amounted to 5230 nM.
As to `CS(=O)(=O)NC(=O)c1cc(Cl)c(OCC2CC3C4CCC(C4)C3C2)cc1F` (centres unmarked), the IC50 worked out at 743 nM in assay [1], 9 nM in assay [2] (setting [4]) and 3.6 nM in assay [3] (setting [5]).
As to `O=C(NS(=O)(=O)N1CC(O)C1)c1cc(C2CC2)c(OCC23CC4CC(CC(C4)C2)C3)cc1F`, the IC50 in assay [1] turned out to be 60.6 nM; in assay [2] (setting [4]), 7 nM; in assay [3] (setting [5]), 10.7 nM.
`O=C(NS(=O)(=O)N1CC(F)C1)c1cc(C2CC2)c(OCC23CC4CC(CC(C4)C2)C3)cc1F`: the figures for the IC50 in assay [1] and in assay [2] (setting [4]) were 422 nM and 1 nM, respectively.
Take `O=C(NS(=O)(=O)N1CCC1)c1cc(C2CC2)c(OCC2CCCCC2)cc1F`: the IC50 in assay [1] was 40 nM; in assay [2], 6 nM; in assay [3] it was 1 nM.
Consider `O=C(NS(=O)(=O)N1CCC1)c1cc(C2CC2)c(OCC2(C(F)(F)F)CCCC2)cc1F`, for which the figures for the IC50 in assay [1], in assay [2] (setting [4]) and in assay [3] (setting [5]) were 90 nM, 4 nM and 2 nM, respectively.
On to `O=C(NS(=O)(=O)C1CC1)c1cc(Cl)c(OCC23CC4CC(CC(C4)C2)C3)cc1F`, for which, in assay [1], the IC50 was found to be 427 nM.
As for `O=C(NS(=O)(=O)N1CCC1)c1cc(C2CC2)c(OCC2C3CC4CC(C3)CC2C4)cc1F` (centres unmarked), the values for the IC50 in assay [1], in assay [2] (setting [4]) and in assay [3] (setting [5]) were 130 nM, 1 nM and 9 nM, respectively.
With `O=C(NS(=O)(=O)N1CCC1)c1cc(C2CC2)c(O[C@H]2C3CC4CC2C[C@](Cl)(C4)C3)cc1F`, the IC50 was 21600 nM in assay [1], 9 nM in assay [2] (setting [4]) and 30 nM in assay [3] (setting [5]).
With `CS(=O)(=O)NC(=O)c1cc(C2CC2)c(OCC23CC4(F)CC(F)(CC(F)(C4)C2)C3)cc1F`, the figures for the IC50 in assay [1], in assay [2] (setting [4]) and in assay [3] (setting [5]) were 3500 nM, 14 nM and 20 nM, respectively.
As for `CS(=O)(=O)NC(=O)c1ccc(OCC23CC4CC(CC(C4)C2)C3)c(Br)c1`, the IC50 stood at 1950 nM in assay [1], 51 nM in assay [2] (setting [4]) and 7.6 nM in assay [3] (setting [5]).
The matching figures for `O=C(NS(=O)(=O)NCCCO)c1cc(C2CC2)c(OCC23CC4CC(CC(C4)C2)C3)cc1F`: 22 nM, 23 nM and 9.2 nM.
The matching figures for `O=C(NS(=O)(=O)N1CCC1)c1cc(C2CC2)c(OCC23CCCCC2C3)cc1F` (centres unmarked): 160 nM, 6 nM and 2 nM.
Take `CS(=O)(=O)NC(=O)c1cnc(OCC23CC4CC(CC(C4)C2)C3)c(C2CC2)c1`: the IC50 is 2580 nM in assay [1], 72 nM in assay [2] (setting [4]) and 17.9 nM in assay [3] (setting [5]).
Regarding `O=C(NS(=O)(=O)N1CCC1)c1cc(C2CC2)c(OCC2CCC(Cl)(Cl)CC2)cc1F` [Example 377], the IC50 in assay [2] (setting [4]) amounted to 8 nM; in assay [3] (setting [5]), 84 nM.
For `CN(C)S(=O)(=O)NC(=O)c1cc(Cl)c(OCC2(C(F)(F)F)CCC2)cc1F`, the IC50 in assay [2] (setting [4]) was determined as 294 nM; in assay [3] (setting [5]) it was 41.6 nM.
Turning to `N#CC1(COc2cc(F)c(C(=O)NS(=O)(=O)N3CCC3)cc2C2CC2)C2CC3CC(C2)CC1C3` (centres unmarked), the values for the IC50 in assay [2] (setting [4]) and in assay [3] (setting [5]) were 9 nM and 5 nM, respectively.
Consider `O=C(NS(=O)(=O)C1CC1)c1cc(C2CC2)c(OCC2CCC3CC3C2)cc1F` (centres unmarked) [Example 392], for which the IC50 was found to be 5 nM in assay [2] (setting [4]) and 3 nM in assay [3] (setting [5]).
With `O=C(NS(=O)(=O)C1CC1)c1cc(C2CC2)c(OC2C3CC4CC(C3)CC2C4)cc1F` (centres unmarked) [Example 332], the IC50 in assay [2] (setting [4]) stood at 4 nM; in assay [3] (setting [5]) it was 27 nM.

The term IC50 denotes the concentration that inhibits the measured activity by half.

The values above are taken from patent publication US8952169B2 (Genentech, Inc., priority 2012, dated 2015).
